Reference: ChEMBL document CHEMBL5325404, “Identification of inhibitors as drug candidates against Chagas disease” (Eur J Med Chem, 2023)

Columns and labels:
Trypanosoma cruzi = experiment: Antitrypanosomal activity against Trypanosoma cruzi Y trypomastigotes infected in monkey LLC-MK2 cells assessed as parasite growth inhibition incubated for 24 hrs by resazurin dye based microplate reader assay; format: functional, organism-based
[1] = Cytotoxicity against mouse NCTC clone 929 cells incubated for 48 hrs by MTT spectrophotometric assay; format: toxicity, cell-based; conditions: NCTC clone 929 (L929) cells
[2] = Selectivity index, ratio of CC50 for cytotoxicity against mouse NCTC clone 929 cells to IC50 for antitrypanosomal activity against Trypanosoma cruzi Y trypomastigotes infected in monkey LLC-MK2 cells assessed as parasite growth inhibition; format: toxicity, cell-based; conditions: read-out: Ratio CC50/IC50
[3] = Trypanosoma cruzi, Y, LLC-MK2, 24 h, read-out: IC50

| Compound | IC50 (Trypanosoma cruzi) | IC50 (Trypanosoma cruzi; [3]) [µM] | CC50 at 48 h [1] [µM] | selectivity ratio [2] |
| --- | --- | --- | --- | --- |
| Cc1cn([C@@H](C)c2ccccc2)nc1NC(=O)CCc1nc(C(C)C)no1 | Not Active | – | – | – |
| Cc1ccc(C[C@H](C)NC(=O)Nc2ccc(C)c(-n3cnnn3)c2)s1 | Not Active | – | – | – |
| Cc1cc(C)c2cc(C(=O)NCc3ccccc3Cn3cncn3)[nH]c2c1 | Not Active | – | – | – |
| O=C(Nc1ccc(F)cc1F)[C@H](NS(=O)(=O)c1cccc2nsnc12)c1ccccc1 | – | 55.2 | > 200 | > 3.6 |
| OCCCNc1nc(Nc2ccccc2)c2cnn(-c3ccccc3)c2n1 | – | 7.1 | 85.2 | 12 |
| Cc1ccc2nc(NC(=O)[C@H]3CCCN3S(=O)(=O)c3cccc4nsnc34)sc2c1 | Not Active | – | – | – |
| Cc1nn(C)c2[nH]c(=O)c(CCC(=O)NC[C@@H]3CCCc4ccccc43)c(C)c12 | Not Active | – | – | – |
| CCOc1ccccc1C(=O)NCC(=O)N1CCC[C@@H](c2nnc3n2CCCCC3)C1 | Not Active | – | – | – |
| COc1ccccc1OCC#CCNS(=O)(=O)c1ccc(Cl)c(Cl)c1 | – | 32.1 | 128 | 4 |
| CC(C)Nc1cc(C(=O)c2cc(F)ccc2O)cn2c(=O)c3ccccc3nc12 | Not Active | – | – | – |
| Cc1nn(C)c2[nH]c(=O)c(/C=C/C(=O)NCCc3ccc(Cl)cc3Cl)c(C)c12 | Not Active | – | – | – |
| CCOc1ccc(CCNC(=O)C2CCN(c3ncnc4onc(C)c34)CC2)cc1 | Not Active | – | – | – |
| Cn1nnc2cc(C(=O)Nc3nccn3Cc3ccccc3Cl)ccc21 | Not Active | – | – | – |
| CC(=O)c1cn(CC(=O)NCCCc2nnc3ccccn23)c2ccccc12 | Not Active | – | – | – |
| CC[C@]1(c2ccccc2)NC(=O)N(NC(=O)CSc2nc(C)nc3sc(C)c(C)c23)C1=O | – | 13.6 | > 200 | > 14.7 |
| CCCOCc1ccccc1CNC(=O)Nc1cnc2c(c1)c(C)nn2C | – | 68.9 | 66.9 | 1 |
| Cc1cccc(NC(=O)[C@@H](Cc2ccccc2)NS(=O)(=O)c2cccc3nsnc23)c1 | – | 22.8 | 79.5 | 3.5 |
| Cc1ccc(-n2cnnn2)cc1NC(=O)N[C@H](C)c1cccc(Cl)c1 | Not Active | – | – | – |
| Cc1ccc(-n2nnnc2S[C@@H](C)C(=O)NC(=O)Nc2ccccc2)cc1 | Not Active | – | – | – |
| O=C(Cn1ccnc1[N+](=O)[O-])NCc1ccccc1 [BENZNIDAZOLE] | – | 18.4 | > 200 | > 10.7 |
| Cc1ccccc1Nc1nc(N(C)CCO)nc2c1cnn2-c1ccccc1 | – | 12.8 | 25 | 2 |
| Cc1ccc(NC(=O)NC(=O)[C@@H](C)Sc2nncn2Cc2ccco2)c(C)c1 | Not Active | – | – | – |
| COc1ccc2nc(NC(=O)CN(C)S(=O)(=O)c3cccc4nsnc34)sc2c1 | Not Active | – | – | – |

Further lines, with some results ahead:

| IC50 (Trypanosoma cruzi) | IC50 (Trypanosoma cruzi; [3]) [µM] | Compound | CC50 at 48 h [1] [µM] | selectivity ratio [2] |
| --- | --- | --- | --- | --- |
| Not Active | – | Cc1cc2nn(CC(=O)Nc3cc(F)cc(F)c3)c(=O)n2c(Nc2ccc(C)c(F)c2)n1 | – | – |
| Not Active | – | Cc1cc(C)cc(Nc2nc(C)cc3nn(CC(=O)Nc4ccc(C)c(F)c4)c(=O)n23)c1 | – | – |
| – | 9 | Cc1cc(C)c2cc(C(=O)Nc3ccccc3-n3cncn3)[nH]c2c1 | 80.9 | 8.9 |
| – | 10.1 | COc1ccc(OC)c(Nc2nc(NCCCO)nc3c2cnn3-c2ccccc2)c1 | > 200 | > 19.8 |
| Not Active | – | Cc1ccc(NC(=O)Cn2nc3cc(C)nc(Nc4ccc(F)c(C)c4)n3c2=O)cc1 | – | – |
| – | 14.8 | OCCCNc1nc(Nc2ccc(F)cc2)c2cnn(-c3ccccc3)c2n1 | 39.2 | 2.6 |
| Not Active | – | CCN(CCO)c1nc(Nc2cc(OC)ccc2OC)c2cnn(-c3ccccc3)c2n1 | – | – |
| – | 37.8 | Cc1ccc(-n2nnnc2S[C@@H](C)C(=O)NCC(=O)Nc2ccc(F)c(F)c2F)c(C)c1 | 52.8 | 1.4 |
| Not Active | – | Cc1ccc(-c2noc(C(=O)NCCNC(=O)COc3ccc(Cl)c(C)c3)n2)cc1 | – | – |
| Not Active | – | COc1ccc(C)cc1NC(=O)Cn1nc2cc(C)nc(Nc3ccc(F)cc3)n2c1=O | – | – |
